Assay results reported in patent US20070009533A1 (priority 2005, published 2007).

Molecular target: T1, MDR1 function in K562/R7 cells (Homo sapiens, UniProt P08183)
T1 construct: endogenous in cells; host or cells: K562/R7 cells
Format: cell-based
Protocol: The loaded and washed cells were cultured at 37° C. in 0.5 ml lacking or containing the indicated concentrations of drug for the indicated amount of time. Control cells were placed on ice immediately after loading and, as indicated by the symbol to the far right at MFI=1172, the cells had been loaded with dye.

T1 sequence (P08183 whole entry): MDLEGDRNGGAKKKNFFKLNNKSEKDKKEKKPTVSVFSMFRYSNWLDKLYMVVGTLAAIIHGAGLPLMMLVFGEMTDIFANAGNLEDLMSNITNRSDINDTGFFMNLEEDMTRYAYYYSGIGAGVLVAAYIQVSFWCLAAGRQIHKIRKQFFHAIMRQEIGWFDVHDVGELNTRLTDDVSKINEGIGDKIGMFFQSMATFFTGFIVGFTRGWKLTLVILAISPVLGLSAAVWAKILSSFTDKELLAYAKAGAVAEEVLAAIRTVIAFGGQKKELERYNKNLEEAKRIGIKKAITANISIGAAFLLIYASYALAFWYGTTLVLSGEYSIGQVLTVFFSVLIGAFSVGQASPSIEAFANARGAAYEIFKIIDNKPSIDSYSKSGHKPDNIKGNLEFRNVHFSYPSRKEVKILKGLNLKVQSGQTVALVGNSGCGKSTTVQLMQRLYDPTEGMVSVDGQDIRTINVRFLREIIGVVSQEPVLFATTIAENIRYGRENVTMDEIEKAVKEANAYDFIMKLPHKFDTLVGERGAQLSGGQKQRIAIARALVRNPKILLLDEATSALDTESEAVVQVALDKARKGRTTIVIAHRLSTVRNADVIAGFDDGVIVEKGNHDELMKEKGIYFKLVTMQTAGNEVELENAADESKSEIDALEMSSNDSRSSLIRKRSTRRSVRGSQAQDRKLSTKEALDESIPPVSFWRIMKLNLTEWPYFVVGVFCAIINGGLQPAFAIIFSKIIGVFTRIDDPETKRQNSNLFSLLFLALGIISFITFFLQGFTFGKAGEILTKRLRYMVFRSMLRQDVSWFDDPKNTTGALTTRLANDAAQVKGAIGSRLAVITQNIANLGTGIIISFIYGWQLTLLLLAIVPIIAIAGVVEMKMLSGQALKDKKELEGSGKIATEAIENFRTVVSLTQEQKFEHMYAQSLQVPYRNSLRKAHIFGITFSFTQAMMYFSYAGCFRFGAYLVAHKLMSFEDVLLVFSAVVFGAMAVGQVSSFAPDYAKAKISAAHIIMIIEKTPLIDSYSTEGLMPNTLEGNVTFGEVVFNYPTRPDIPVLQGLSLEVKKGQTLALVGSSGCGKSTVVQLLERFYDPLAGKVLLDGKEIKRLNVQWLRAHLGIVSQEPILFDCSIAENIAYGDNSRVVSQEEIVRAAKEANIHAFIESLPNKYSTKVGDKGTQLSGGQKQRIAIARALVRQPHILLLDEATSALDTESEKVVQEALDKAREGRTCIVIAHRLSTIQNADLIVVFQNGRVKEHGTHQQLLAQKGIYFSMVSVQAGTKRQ

## O[C@@H](COc1cccc2ncccc12)CN1CCN([C@@H]2c3ccccc3[C@@H]3[C@H](c4ccccc42)C3(F)F)CC1 [zosuquidar]
  effect on dye release during efflux incubation: inhibited dye release in a concentration-dependent manner
